Results reported in publication PMC9221509, “Discovery of a Novel Antimicrobial Peptide, Temporin-PKE, from the Skin Secretion of Pelophylax kl. esculentus, and Evaluation of Its Structure-Activity Relationships” (Biomolecules, 2022).
Non-standard residues stand in square brackets, D forms with d. Residues, ends and D or L forms follow the SMILES beside them. No end group written: not given here.

What was measured:
[1] = test system: MRSA (NCTC 12493) biofilm; type: cell-based, methicillin-resistant Staphylococcus aureus; details: NCTC 12493, 24 h
Description: (§1) The anti-biofilm activities of the peptides against S. aureus (ATCC 6538), MRSA (NCTC 12493), E. faecalis (NCTC 12697), E. coli (ATCC CRM 8739), K. pneumoniae (ATCC 43816), and P. aeruginosa (ATCC CRM 9027), were evaluated. For the MBIC assay, 99 µL of bacterial suspension (5 × 10^5 CFU/mL) was mixed with 1 µL of serial dilutions (from 100 µM to 51,200 µM) of temporin-PKE and its analogues in a 96-well plate, and the plate was incubated in a moist shaking incubator at a speed of 200 rpm at 37 °C for 24 h. For the MBEC assay, 100 µL of bacterial suspension (5 × 10^5 CFU/mL) in each well was seeded in a new 96-well plate, and the plate was put into the same shaking incubator for 24 h incubation to allow biofilm formation on the well. After biofilm formation, the biofilm in the plate was washed with PBS twice. The PBS was aspirated between washes to remove planktonic bacterial cells. The washed biofilm in each well was treated with 100 µL of serial dilutions (from 1 µM to 512 µM) of the test peptides. Then, the plate was incubated in the same shaking incubator for another 24 h. After being washed by PBS twice and fixed with methanol, the biofilm in each well was incubated with 100 µL of 0.1% crystal violet for 30 min, and the stained biofilm was dissolved in 100 µL of glacial acidic acid after drying. The solutions were transferred to a new microplate, and the absorbance of each well was measured using a microplate reader (EL808, Biolise BioTek, Winooski, VT, USA) set to 595 nm wavelength. The MBIC was the minimum concentration of the peptide showing no biofilm formation. The MBEC is the lowest concentration of the peptide capable of eradicating the mature biofilms, which had no biofilm in the well.

[2] = test system: HCT-116 cells; type: cell-based; details: 24 h
Description: (§2) The cytotoxicity of the peptides against the human epidermal keratinocyte line, HaCaT, was tested using the MTT cell viability assay as described in a previous study. The 100 µL of the cell suspension in a complete DMEM medium with a density of 10,000 cells/mL was seeded in a 96-well plate and incubated overnight at 37 °C in a humidified 5% CO2 atmosphere. After 4 h of starvation in a serum-free medium, 100 μL of serial dilutions (from 10^−9 M to 10^−4 M) of temporin-PKE and its analogues was added to each well, and the plate was incubated for 24 h. The serum-free medium and 0.1% Triton X-100 were used as the negative and positive control, respectively. Then, MTT solution, at a volume of 10 μL, was added to each well, and the plate was incubated for 2 h. After this, the medium was replaced by 100 μL of DMSO, and plates were put in the shaking incubator for 15 min. The absorbance of each well was measured using a microplate reader (EL808, Biolise BioTek, Winooski, VT, USA) set to a wavelength of 570 nm. The equation used to calculate the viability of the cells is shown below: Cell viability (%)=A−Ab/An−Ab×100% where A represents the absorbance of each treatment group, Ab represents the average absorbance of the wells in the blank control group (cells not exposed to the test peptide and MTT), and An represents the average absorbance of the wells in the negative control group (cells not exposed to the test peptide).
(§3) The anti-proliferative activities of peptides against HCT-116, NCI-H838 (H838), U251MG, PC-3, and NCI-H157 cell lines were determined by MTT cell viability assay, and the details were described in Section 2.9.

[3] = test system: PC-3 cells; type: cell-based; details: 24 h
Description: as §2, §3

[4] = test system: U251MG cells; type: cell-based; details: 24 h
Description: as §2, §3

[5] = test system: P. aeruginosa (ATCC CRM 9027) biofilm; type: cell-based, Pseudomonas aeruginosa; details: ATCC CRM 9027, 24 h
Description: as §1

[6] = test system: K. pneumoniae (ATCC 43816); type: cell-based, Klebsiella pneumoniae; details: ATCC 43816, 24 h
Description: The antimicrobial activities of peptides were evaluated against the Gram-positive bacteria, S. aureus (ATCC 6538), methicillin-resistant Staphylococcus aureus (MRSA) (NCTC 12493), Enterococcus faecalis (E. faecalis) (NCTC 12697); the Gram-negative bacteria, E. coli (ATCC CRM 8739), Klebsiella pneumoniae (K. pneumoniae) (ATCC 43816), Pseudomonas aeruginosa (P. aeruginosa) (ATCC CRM 9027); and the yeast, Candida albicans (C. albicans) (ATCC CRM 10231). Clinical isolates of MRSA (B042 V2E1 A), E. coli (ATCC BAA-2340), K. pneumoniae (ATCC BAA-1705), and P. aeruginosa (B004 V2S2 B) were also used to determine their antimicrobial activities. The suspension of microorganisms in the logarithmic growth phase with a specific final density (Gram-negative and Gram-positive bacteria: 5 × 10^5 CFU/mL; yeast: 1 × 10^6 CFU/mL) was incubated with different peptide concentrations from 1 µM to 512 µM at 37 °C for 24 h. PBS was used as the negative control, and norfloxacin and amphotericin B were selected as the positive control for bacteria and yeast, respectively. Since the Norfloxacin had weak activities against P. aeruginosa (B004 V2S2 B) and K. pneumoniae (ATCC BAA 1705), gentamicin was used as the positive control for these two bacterial strains. The absorbance of each well was obtained using a microplate reader (EL808, Biolise BioTek, Winooski, VT, USA) set at 550 nm wavelength. The MIC value was the lowest concentration of a peptide that inhibits visible bacterial growth. Once the MIC values were determined, an aliquot from the bacterial culture exposed to the peptide at or above its MIC value was inoculated on a Mueller Hinton agar (MHA) and was incubated at 37 for 18 h. The MBC value was the lowest concentration of a peptide that kills 99.9% of bacteria.
According to the procedures in a previous article, the analysis of the sensitivity of the peptides was determined by measuring MIC values in the presence of different types of salts and 10% fetal bovine serum. MRSA (NCTC 12493) and K. pneumoniae (ATCC 43816) were selected as the subjects of these assays. Various salts at different concentrations, including 150 mM NaCl, 4.5 mM KCl, 6 μM NH4Cl, 1 mM MgCl2, […], […], and 10% serum (Gibco, Auckland, New Zealand), were added to the MHB medium for the examination of the MIC values which were determined as described in Section 2.7.

[7] = test system: HaCaT cells; type: cell-based, human; details: 24 h
Description: as §2

Compound	MBIC [1] [µM]	IC50 [2] [µM]	IC50 [3] [µM]	IC50 [4] [µM]	MBIC [5] [µM]	MIC against K. pneumoniae in the presence of 4 µM FeCl3 [6] [µM]	MIC against K. pneumoniae in the presence of 6 µM NH4Cl [6] [µM]	MIC against K. pneumoniae in the presence of 8 µM ZnCl2 [6] [µM]	MIC against K. pneumoniae in the presence of 1 mM MgCl2 [6] [µM]	MIC against K. pneumoniae in the presence of 2 mM CaCl2 [6] [µM]	MIC against K. pneumoniae in the presence of 4.5 mM KCl [6] [µM]	MIC against K. pneumoniae in the presence of 150 mM NaCl [6] [µM]	MIC against K. pneumoniae in the presence of 10% FBS [6] [µM]	MIC against K. pneumoniae, Negative [6] [µM]	IC50 [7] [µM]
FLPKIIGKLSSKLPKIF-NH2 [Temporin-PKE-4K]	32	99.4	49.5	85.5	128	16	16	16	64	128	16	64	64	16	251
FLPLIIGALSSLLPKIF-NH2 [Temporin-PKE]	4	21.3	7.29	23.2	>512	>512	>512	>512	>512	>512	>512	>512	>512	>512	5.04
CC[C@@H](C)[C@@H](NC(=O)[C@H](CCCCN)NC(=O)[C@@H]1CCCN1C(=O)[C@H](CC(C)C)NC(=O)[C@H](CC(C)C)NC(=O)[C@H](CO)NC(=O)[C@H](CO)NC(=O)[C@H](CC(C)C)NC(=O)[C@H](C)NC(=O)CNC(=O)[C@H](NC(=O)[C@H](NC(=O)[C@H](CC(C)C)NC(=O)[C@@H]1CCCN1C(=O)[C@H](CC(C)C)NC(=O)[C@@H](N)Cc1ccccc1)[C@H](C)CC)[C@H](C)CC)C(=O)N[C@@H](Cc1ccccc1)C(N)=O [Temporin-PKE-3i] (H-FLPL[dI][dI]GALSSLLPK[dI]F-NH2)	64	72.1	167	121	>512	>512	>512	>512	>512	>512	>512	>512	>512	>512	497
FLPLIIGKLSSLLPKIF-NH2 [Temporin-PKE-2K]	2	2.84	2.64	2.49	>512	16	16	16	32	32	16	128	64	16	9.04
CC[C@@H](C)[C@@H](NC(=O)[C@H](CCCCN)NC(=O)[C@@H]1CCCN1C(=O)[C@H](CC(C)C)NC(=O)[C@H](CC(C)C)NC(=O)[C@H](CO)NC(=O)[C@H](CO)NC(=O)[C@H](CC(C)C)NC(=O)[C@H](C)NC(=O)CNC(=O)[C@@H](NC(=O)[C@@H](NC(=O)[C@H](CC(C)C)NC(=O)[C@@H]1CCCN1C(=O)[C@H](CC(C)C)NC(=O)[C@@H](N)Cc1ccccc1)[C@@H](C)CC)[C@@H](C)CC)C(=O)N[C@@H](Cc1ccccc1)C(N)=O [Temporin-PKE-i] (H-FLPLIIGALSSLLPK[dI]F-NH2)	2	3.07	3.35	4.46	>512	>512	>512	>512	>512	>512	>512	>512	>512	>512	11.9
FLPKIIGKLSSLLPKIF-NH2 [Temporin-PKE-3K]	2	0.38	3.01	2.83	64	16	4	4	16	16	4	16	16	4	29.6
FLPLIIGALSSKLPKIF-NH2 [Temporin-PKE-K12]	4	22.1	27.3	25.8	>512	32	32	64	128	256	32	128	128	32	19
